According to ChEMBL document CHEMBL4152303, “Structure-activity relationships of imidazothiazinones and analogs as antagonists of the cannabinoid-activated orphan G protein-coupled receptor GPR18” (Eur J Med Chem, 2018):

Tests used:
[1] = target: T1, G-protein coupled receptor 55 (Homo sapiens, UniProt Q9Y2T6); experiment: Agonist activity at recombinant human GPR55 expressed in CHO cells assessed as increase in beta-arrestin recruitment incubated for 60 mins measured for 1 sec by luminescence assay; assay type: functional, cell-based
T1 sequence (Q9Y2T6 whole entry): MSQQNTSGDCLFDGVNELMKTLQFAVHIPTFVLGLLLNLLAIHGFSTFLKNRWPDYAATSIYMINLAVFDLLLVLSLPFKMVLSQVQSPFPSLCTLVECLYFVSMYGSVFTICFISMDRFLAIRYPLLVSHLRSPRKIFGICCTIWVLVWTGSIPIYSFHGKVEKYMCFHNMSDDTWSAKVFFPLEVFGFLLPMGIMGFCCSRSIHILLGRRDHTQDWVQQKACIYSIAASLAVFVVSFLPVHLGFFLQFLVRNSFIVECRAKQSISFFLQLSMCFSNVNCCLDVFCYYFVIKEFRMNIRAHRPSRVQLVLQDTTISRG

[2] = target: T2, N-arachidonyl glycine receptor (Homo sapiens, UniProt Q14330); experiment: (§1) Antagonist activity at recombinant human GPR18 expressed in CHO cells assessed as inhibition of delta9-THC-induced beta-arrestin recruitment preincubated for 60 mins followed by delta9-THC addition for 90 mins measured for 1 sec by luminescence assay; assay type: functional, cell-based
T2 sequence (Q14330 whole entry): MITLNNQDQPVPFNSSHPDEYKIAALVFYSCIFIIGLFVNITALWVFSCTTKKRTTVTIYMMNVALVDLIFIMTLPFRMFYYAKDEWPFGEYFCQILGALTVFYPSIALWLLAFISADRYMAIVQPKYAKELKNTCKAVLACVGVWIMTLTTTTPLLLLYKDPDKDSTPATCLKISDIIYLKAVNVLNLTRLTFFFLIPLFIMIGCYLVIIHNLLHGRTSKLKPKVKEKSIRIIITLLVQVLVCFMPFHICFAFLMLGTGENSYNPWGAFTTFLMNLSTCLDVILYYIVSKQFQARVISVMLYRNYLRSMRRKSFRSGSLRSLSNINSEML

[3] = target: T3, N-arachidonyl glycine receptor (Homo sapiens) (UniProt Q14330); experiment: as §1; assay type: functional, cell-based
T3 sequence (whole entry): T2 sequence (Q14330 whole entry)

Cannabinoid receptor 1 = Cannabinoid receptor 1 (Homo sapiens, UniProt P21554); experiment: Displacement of [3H]CP55940 from recombinant human CB1 receptor expressed in CHO cell membranes after 2 hrs by liquid scintillation counting method; conditions: for inhibition: concentration not given here
Chain of Cannabinoid receptor 1 (P21554 whole entry): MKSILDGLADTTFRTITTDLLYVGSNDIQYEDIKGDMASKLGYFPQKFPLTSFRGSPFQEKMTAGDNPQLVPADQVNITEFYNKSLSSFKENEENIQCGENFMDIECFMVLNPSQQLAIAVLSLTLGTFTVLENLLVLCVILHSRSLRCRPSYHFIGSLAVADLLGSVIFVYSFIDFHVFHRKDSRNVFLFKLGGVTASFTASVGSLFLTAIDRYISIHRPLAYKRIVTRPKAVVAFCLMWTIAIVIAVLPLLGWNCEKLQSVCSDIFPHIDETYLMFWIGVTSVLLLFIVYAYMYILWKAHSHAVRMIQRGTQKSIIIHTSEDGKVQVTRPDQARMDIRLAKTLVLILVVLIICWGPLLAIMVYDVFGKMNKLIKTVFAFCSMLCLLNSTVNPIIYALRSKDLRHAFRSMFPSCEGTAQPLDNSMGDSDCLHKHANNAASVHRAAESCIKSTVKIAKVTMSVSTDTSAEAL

[4] = target: T1, G-protein coupled receptor 55; experiment: Antagonist activity at recombinant human GPR55 expressed in CHO cells assessed as inhibition of lysophosphatidylinositol-induced beta-arrestin recruitment preincubated for 60 mins followed by lysophosphatidylinositol addition for 90 mins measured for 1 sec by luminescence assay; assay type: functional, cell-based
[5] = target: T2, N-arachidonyl glycine receptor; experiment: (§2) Agonist activity at recombinant human GPR18 expressed in CHO cells assessed as increase in beta-arrestin recruitment incubated for 60 mins measured for 1 sec by luminescence assay; assay type: functional, cell-based
[6] = target: T3, N-arachidonyl glycine receptor (Homo sapiens); experiment: as §2; assay type: functional, cell-based
Cannabinoid receptor 2 = Cannabinoid receptor 2 (Homo sapiens, UniProt P34972); experiment: Displacement of [3H]CP55940 from recombinant human CB2 receptor expressed in CHO cell membranes after 2 hrs by liquid scintillation counting method; conditions: for inhibition: concentration not given here
Chain of Cannabinoid receptor 2 (P34972 whole entry): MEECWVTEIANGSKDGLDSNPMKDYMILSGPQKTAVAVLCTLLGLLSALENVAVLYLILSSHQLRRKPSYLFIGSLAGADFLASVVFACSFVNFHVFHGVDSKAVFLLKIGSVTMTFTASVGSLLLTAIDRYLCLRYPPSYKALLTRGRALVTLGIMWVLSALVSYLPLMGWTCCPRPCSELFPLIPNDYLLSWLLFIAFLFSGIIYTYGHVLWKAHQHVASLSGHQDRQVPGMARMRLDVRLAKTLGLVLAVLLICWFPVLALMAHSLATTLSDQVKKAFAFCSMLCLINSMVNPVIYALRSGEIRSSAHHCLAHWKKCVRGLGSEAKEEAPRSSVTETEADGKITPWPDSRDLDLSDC

Structure (SMILES) | %max [1] | EC50 [1] | IC50 [2] | Imax [3] | Ki (Cannabinoid receptor 1) | inhibition (Cannabinoid receptor 1) | IC50 [4] | Imax [4] | EC50 [5] | %max [6] | Ki (Cannabinoid receptor 2) | inhibition (Cannabinoid receptor 2) | Imax (Cannabinoid receptor 1) | inhibition [3] | Imax (Cannabinoid receptor 2)
O=C1/C(=C/c2cccc(OCCCCCOc3ccc(Cl)cc3)c2)N=C2SCCCN12 | -21% | > 10 µM | 1.14 µM | 123% | > 10 µM | 8% | 3.77 µM | 124% | > 10 µM | -38% | > 10 µM | – | – | – | –
CSC1=N/C(=C\c2cccc(OCc3ccc(Cl)cc3)c2)C(=O)N1C | -2% | > 10 µM | > 10 µM | 23% | > 10 µM | 19% | > 10 µM | 35% | > 10 µM | -2% | > 10 µM | 24% | – | – | –
O=C1NC(=O)/C(=C/c2cccc(OCc3ccc(Cl)cc3)c2)S1 | 22% | > 10 µM | > 10 µM | -10% | 5.04 µM | – | > 10 µM | -1% | > 10 µM | -1% | > 10 µM | 41% | 67% | – | –
O=C1/C(=C/c2cccc(OCCc3ccccc3)c2)N=C2SCCCN12 | -42% | > 10 µM | > 10 µM | 16% | > 10 µM | 24% | 29.3 µM | 130% | > 10 µM | 8% | > 10 µM | 19% | – | – | –
O=C1/C(=C/c2cccc(OCc3ccc(F)cc3)c2)N=C2SCCCN12 | -30% | > 10 µM | > 10 µM | 3% | > 10 µM | 35% | 4.22 µM | 149% | > 10 µM | 6% | > 10 µM | 46% | – | – | –
O=C1NC(SCc2ccccc2)=N/C1=C\c1cccc(OCc2ccc(Cl)cc2)c1 | 21% | > 10 µM | > 10 µM | 3% | > 10 µM | 11% | > 10 µM | 17% | > 10 µM | -17% | > 10 µM | 46% | – | – | –
O=C1NC(=S)N/C1=C\c1cccc(OCc2ccc(Cl)cc2)c1 | 5% | > 10 µM | 33 µM | 165% | > 10 µM | 30% | 32.4 µM | 118% | > 10 µM | -14% | > 10 µM | 19% | – | – | –
Cc1ccc(COc2cccc(/C=C3\N=C4SCCCN4C3=O)c2)cc1 | -31% | > 10 µM | 3.59 µM | 61% | > 10 µM | 22% | 9.45 µM | 134% | > 10 µM | 2% | > 10 µM | 25% | – | – | –
Cc1cccc(C)c1OCCCCCCOc1cccc(/C=C2\N=C3SCCCN3C2=O)c1 | 33% | > 10 µM | 10 µM | – | > 10 µM | 13% | > 10 µM | 32% | > 10 µM | 3% | > 10 µM | 46% | – | 55% | –
O=C1/C(=C/c2cccc(OCCCCCCOc3cccc(Cl)c3)c2)N=C2SCCCN12 | 28% | > 10 µM | – | 55% | > 10 µM | 33% | > 10 µM | 37% | > 10 µM | 0% | > 10 µM | 46% | – | – | –
O=C1/C(=C/c2cccc(OCCCCOc3ccc(Cl)cc3)c2)N=C2SCCCN12 | 11% | > 10 µM | 2.38 µM | 116% | > 10 µM | – | > 10 µM | 26% | > 10 µM | -16% | > 10 µM | 3% | – | – | –
O=C1N=C2SCCN2/C1=C\c1cccc(OCc2ccc(Cl)cc2)c1 | 2% | > 10 µM | > 10 µM | 25% | 1.67 µM | – | > 10 µM | 19% | > 10 µM | 13% | > 10 µM | 41% | 60% | – | –
O=C1/C(=C/c2cccc(OCc3ccc(Cl)cc3)c2)N=C2SCCN12 | -3% | > 10 µM | > 10 µM | 40% | > 10 µM | 18% | > 10 µM | 42% | > 10 µM | 1% | > 10 µM | 28% | – | – | –
Cc1ccc(CSC2=N/C(=C\c3cccc(OCc4ccc(Cl)cc4)c3)C(=O)N2C)cc1 | 20% | > 10 µM | > 10 µM | 17% | > 10 µM | 15% | > 10 µM | 33% | > 10 µM | 7% | > 10 µM | 25% | – | – | –
O=C1/C(=C/c2cccc(OCCCOc3ccc(Cl)cc3)c2)N=C2SCCCN12 | -36% | > 10 µM | 3.25 µM | 113% | > 10 µM | 18% | > 10 µM | 38% | > 10 µM | -16% | > 10 µM | -2% | – | – | –
Cc1ccc(OCCCCCCOc2cccc(/C=C3\N=C4SCCCN4C3=O)c2)cc1 | 35% | > 10 µM | 0.238 µM | 81% | > 10 µM | 9% | 2.91 µM | 86% | > 10 µM | -12% | > 10 µM | 12% | – | – | –
Cc1ccc(CSC2=N/C(=C\c3cccc(OCc4ccc(Cl)cc4)c3)C(=O)N2)cc1 | -12% | > 10 µM | > 10 µM | 0% | > 10 µM | 38% | > 10 µM | 48% | > 10 µM | 4% | > 10 µM | 22% | – | – | –
CC(C)c1ccc(OCCCCCCOc2cccc(/C=C3\N=C4SCCCN4C3=O)c2)cc1 | 45% | > 10 µM | > 10 µM | 24% | > 10 µM | 33% | > 10 µM | 32% | > 10 µM | 15% | > 10 µM | 46% | – | – | –
O=C1/C(=C/c2cccc(OCCCCCCCCOc3ccc(Cl)cc3)c2)N=C2SCCCN12 | -18% | > 10 µM | 1.15 µM | 124% | > 10 µM | -9% | > 10 µM | 43% | > 10 µM | -25% | > 10 µM | -3% | – | – | –
O=C1NC(SCc2ccc(Cl)cc2)=N/C1=C\c1cccc(OCc2ccc(Cl)cc2)c1 | -10% | > 10 µM | > 10 µM | 35% | > 10 µM | 36% | > 10 µM | 41% | > 10 µM | 5% | > 10 µM | 30% | – | – | –
CSC1=NC(=O)/C(=C/c2cccc(OCc3ccc(Cl)cc3)c2)N1 | 18% | > 10 µM | 13.8 µM | 71% | 2.21 µM | – | > 10 µM | 47% | > 10 µM | 31% | 0.591 µM | – | – | – | 73%
O=C1NC(SCc2ccc(F)cc2)=N/C1=C\c1cccc(OCc2ccc(Cl)cc2)c1 | -21% | > 10 µM | > 10 µM | 27% | > 10 µM | 42% | > 10 µM | 44% | > 10 µM | 23% | > 10 µM | 19% | – | – | –
CN1C(=N)NC(=O)/C1=C/c1cccc(OCc2ccc(Cl)cc2)c1 | 22% | > 10 µM | > 10 µM | 4% | > 10 µM | 43% | > 10 µM | -5% | > 10 µM | 6% | 22.8 µM | – | – | – | –
CCc1ccc(OCCCCCCOc2cccc(/C=C3\N=C4SCCCN4C3=O)c2)cc1 | 47% | > 10 µM | 25 µM | 99% | > 10 µM | 13% | > 10 µM | 37% | > 10 µM | 0% | > 10 µM | 13% | – | – | –
